Reference: PMC12073402, “A Selective MAP3K1 Inhibitor Facilitates Discovery of NPM1 as a Member of the Network” (Molecules, 2025)

Experiments:
Assay in all cases: KiNativ kinome profiling in PANC-1 lysate
Assay type in all cases: binding
MAP3K6 = molecular target: T1, MAP3K6 (Homo sapiens, UniProt O95382)
T1 construct: endogenous in cells; host or cells: PANC-1 cell lysate
Summary of the method: (§1)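 PANC-1 lysates were incubated with 5 μM inhibitor or DMSO, then labeled with a desthiobiotin-ATP acyl-phosphate probe that biotinylates conserved kinase lysines. Tryptic peptides were streptavidin-enriched and quantified by LC-MS/MS, reported as % change in MS signal from duplicate treated and duplicate control samples.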

BARK1 = molecular target: T2, BARK1 (Homo sapiens, UniProt P25098); conditions: Lys2
T2 construct: endogenous in cells; host or cells: PANC-1 cell lysate
Summary of the method: as §1

p70S6Kb = molecular target: T3, p70S6Kb (Homo sapiens, UniProt Q9UBS0); conditions: Lys2
T3 construct: endogenous in cells; host or cells: PANC-1 cell lysate
Summary of the method: as §1

PLK2 = molecular target: T4, PLK2 (Homo sapiens, UniProt Q9NYY3); conditions: Lys2
T4 construct: endogenous in cells; host or cells: PANC-1 cell lysate
Summary of the method: as §1

LKB1 = molecular target: T5, LKB1 (Homo sapiens, UniProt Q15831); conditions: Lys2
T5 construct: we opted to conduct a kinome screen (KiNativ) in PANC-1 cell lysates; endogenous in cells; host or cells: PANC-1 cell lysate
Summary of the method: as §1

ZC2/TNIK = molecular target: T6, ZC2/TNIK (Homo sapiens, UniProt Q9UKE5); conditions: Lys1
T6 construct: endogenous in cells; host or cells: PANC-1 cell lysate
Summary of the method: as §1

AKT1 = molecular target: T7, AKT1 (Homo sapiens, UniProt P31749); conditions: ATP Loop
T7 construct: endogenous in cells; host or cells: PANC-1 cell lysate
Summary of the method: as §1

SMG1 = molecular target: T8, SMG1 (Homo sapiens, UniProt Q96Q15); conditions: ATP
T8 construct: endogenous in cells; host or cells: PANC-1 cell lysate
T8 sequence (Q96Q15 whole entry): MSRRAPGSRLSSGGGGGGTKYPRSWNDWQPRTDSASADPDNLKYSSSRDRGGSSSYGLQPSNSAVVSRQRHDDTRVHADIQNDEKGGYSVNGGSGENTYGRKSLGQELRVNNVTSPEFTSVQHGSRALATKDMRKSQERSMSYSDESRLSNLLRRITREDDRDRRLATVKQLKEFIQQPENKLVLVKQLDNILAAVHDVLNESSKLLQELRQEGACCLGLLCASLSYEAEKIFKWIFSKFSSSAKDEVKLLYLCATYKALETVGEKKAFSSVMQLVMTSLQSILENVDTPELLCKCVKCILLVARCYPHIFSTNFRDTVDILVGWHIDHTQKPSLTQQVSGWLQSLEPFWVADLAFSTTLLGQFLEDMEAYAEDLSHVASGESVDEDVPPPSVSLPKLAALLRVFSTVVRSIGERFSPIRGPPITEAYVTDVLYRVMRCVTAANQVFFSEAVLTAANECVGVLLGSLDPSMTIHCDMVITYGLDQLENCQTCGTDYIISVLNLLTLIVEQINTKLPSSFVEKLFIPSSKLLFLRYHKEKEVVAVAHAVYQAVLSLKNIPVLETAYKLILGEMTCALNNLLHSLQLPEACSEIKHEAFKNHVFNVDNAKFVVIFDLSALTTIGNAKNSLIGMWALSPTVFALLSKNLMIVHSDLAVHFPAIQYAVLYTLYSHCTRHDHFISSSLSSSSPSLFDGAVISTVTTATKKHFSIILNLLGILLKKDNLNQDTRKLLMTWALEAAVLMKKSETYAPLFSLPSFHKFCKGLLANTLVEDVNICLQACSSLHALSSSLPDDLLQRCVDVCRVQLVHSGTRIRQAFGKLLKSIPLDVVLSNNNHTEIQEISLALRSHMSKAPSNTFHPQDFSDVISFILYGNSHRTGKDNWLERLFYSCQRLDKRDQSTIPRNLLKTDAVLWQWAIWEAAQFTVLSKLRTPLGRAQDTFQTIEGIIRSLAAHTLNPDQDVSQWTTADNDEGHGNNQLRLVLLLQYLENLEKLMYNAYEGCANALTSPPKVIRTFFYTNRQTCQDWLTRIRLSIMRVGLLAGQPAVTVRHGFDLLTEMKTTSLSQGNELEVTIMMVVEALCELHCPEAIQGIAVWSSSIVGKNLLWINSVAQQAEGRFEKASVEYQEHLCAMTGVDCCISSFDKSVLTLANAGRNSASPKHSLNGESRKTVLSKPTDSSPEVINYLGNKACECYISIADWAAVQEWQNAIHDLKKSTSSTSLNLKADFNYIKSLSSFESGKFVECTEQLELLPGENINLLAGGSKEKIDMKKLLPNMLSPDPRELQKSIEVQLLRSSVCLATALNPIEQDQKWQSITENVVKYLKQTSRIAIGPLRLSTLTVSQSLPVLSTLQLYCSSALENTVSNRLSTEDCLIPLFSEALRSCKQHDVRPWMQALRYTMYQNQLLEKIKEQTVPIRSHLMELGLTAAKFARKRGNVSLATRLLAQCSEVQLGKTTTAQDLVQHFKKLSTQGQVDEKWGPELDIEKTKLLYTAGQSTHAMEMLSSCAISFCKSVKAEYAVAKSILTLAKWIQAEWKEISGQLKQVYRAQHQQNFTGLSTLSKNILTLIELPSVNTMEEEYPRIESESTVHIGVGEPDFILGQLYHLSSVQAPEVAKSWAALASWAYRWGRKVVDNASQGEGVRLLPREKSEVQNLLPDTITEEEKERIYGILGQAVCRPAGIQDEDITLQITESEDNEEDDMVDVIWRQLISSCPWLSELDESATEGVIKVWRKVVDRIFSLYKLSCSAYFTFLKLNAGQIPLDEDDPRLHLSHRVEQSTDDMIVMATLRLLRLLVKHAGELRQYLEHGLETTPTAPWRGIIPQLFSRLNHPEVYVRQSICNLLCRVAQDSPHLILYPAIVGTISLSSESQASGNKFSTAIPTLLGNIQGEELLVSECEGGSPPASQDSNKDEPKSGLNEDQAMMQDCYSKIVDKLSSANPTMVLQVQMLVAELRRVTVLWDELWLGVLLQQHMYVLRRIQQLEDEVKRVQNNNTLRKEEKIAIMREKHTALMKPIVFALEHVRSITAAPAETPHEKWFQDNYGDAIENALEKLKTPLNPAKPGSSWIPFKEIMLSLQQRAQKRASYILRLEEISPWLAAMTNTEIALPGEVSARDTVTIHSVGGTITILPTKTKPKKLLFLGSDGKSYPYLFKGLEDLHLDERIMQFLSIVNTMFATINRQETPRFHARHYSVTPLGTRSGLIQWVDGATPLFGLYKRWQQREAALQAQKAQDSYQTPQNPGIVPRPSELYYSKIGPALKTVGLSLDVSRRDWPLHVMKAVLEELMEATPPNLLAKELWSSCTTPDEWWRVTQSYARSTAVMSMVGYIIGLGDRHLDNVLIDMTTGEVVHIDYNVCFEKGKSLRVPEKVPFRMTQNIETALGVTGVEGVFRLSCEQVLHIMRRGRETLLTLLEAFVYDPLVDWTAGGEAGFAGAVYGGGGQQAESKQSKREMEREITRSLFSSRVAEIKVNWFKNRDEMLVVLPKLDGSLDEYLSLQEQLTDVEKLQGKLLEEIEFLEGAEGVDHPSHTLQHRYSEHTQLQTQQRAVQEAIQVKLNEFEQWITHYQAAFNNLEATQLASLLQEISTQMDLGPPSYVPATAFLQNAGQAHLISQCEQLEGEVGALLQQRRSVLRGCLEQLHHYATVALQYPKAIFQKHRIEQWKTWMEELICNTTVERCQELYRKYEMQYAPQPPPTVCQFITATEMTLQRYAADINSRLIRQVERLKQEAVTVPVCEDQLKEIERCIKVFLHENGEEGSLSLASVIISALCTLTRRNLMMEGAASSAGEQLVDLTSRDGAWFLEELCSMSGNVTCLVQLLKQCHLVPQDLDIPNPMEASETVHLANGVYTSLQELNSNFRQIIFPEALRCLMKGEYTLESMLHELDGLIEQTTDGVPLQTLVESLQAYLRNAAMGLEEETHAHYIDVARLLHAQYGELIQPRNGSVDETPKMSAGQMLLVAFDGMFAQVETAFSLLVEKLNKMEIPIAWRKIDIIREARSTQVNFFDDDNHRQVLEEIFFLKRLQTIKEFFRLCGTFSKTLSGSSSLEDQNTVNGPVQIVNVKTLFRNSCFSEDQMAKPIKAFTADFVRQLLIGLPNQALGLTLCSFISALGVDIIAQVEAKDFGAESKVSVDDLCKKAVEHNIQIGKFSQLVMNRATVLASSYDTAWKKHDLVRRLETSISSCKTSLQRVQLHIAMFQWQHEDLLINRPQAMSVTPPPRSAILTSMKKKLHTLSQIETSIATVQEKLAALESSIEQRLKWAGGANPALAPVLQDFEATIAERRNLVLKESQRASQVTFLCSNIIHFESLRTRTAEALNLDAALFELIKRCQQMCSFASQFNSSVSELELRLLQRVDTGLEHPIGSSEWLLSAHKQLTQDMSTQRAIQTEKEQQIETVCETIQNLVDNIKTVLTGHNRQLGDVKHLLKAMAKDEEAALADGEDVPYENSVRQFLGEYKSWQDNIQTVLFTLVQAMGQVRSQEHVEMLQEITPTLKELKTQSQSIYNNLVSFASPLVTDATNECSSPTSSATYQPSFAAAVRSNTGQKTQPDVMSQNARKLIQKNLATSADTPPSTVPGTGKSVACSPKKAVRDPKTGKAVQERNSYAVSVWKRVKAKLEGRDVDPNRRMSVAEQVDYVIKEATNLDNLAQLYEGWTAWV
Summary of the method: as §1

MELK = molecular target: T9, MELK (Homo sapiens, UniProt Q14680); conditions: Lys2
T9 construct: endogenous in cells; host or cells: PANC-1
Summary of the method: as §1

RSK2 domain2 = molecular target: T10, RSK2 domain2 (Homo sapiens, UniProt P51812); conditions: Lys2
T10 construct: endogenous in cells; host or cells: PANC-1 cell lysate
Summary of the method: as §1

MAST4 = molecular target: T11, MAST4 (Homo sapiens, UniProt O15021); conditions: Lys2
T11 construct: endogenous in cells; host or cells: PANC-1
Summary of the method: as §1

GSK3B = molecular target: T12, GSK3B (Homo sapiens, UniProt P49841); conditions: Lys2
T12 construct: we opted to conduct a kinome screen (KiNativ) in PANC-1 cell lysates; endogenous in cells; host or cells: PANC-1 cell lysate
Summary of the method: as §1

PI4KA, PI4KAP2 = conditions: 5 µM; ATP; SGTPMQSAAKAPYLAK
Summary of the method: as §1

DRAK1, DRAK2 = conditions: 5 µM; ATP Loop; GKFAVVR
Summary of the method: as §1

AurA = molecular target: T13, AurA (Homo sapiens, UniProt O14965)
T13 construct: endogenous in cells; host or cells: PANC-1 cell lysate
Summary of the method: as §1

CDK9 = molecular target: T14, CDK9 (Homo sapiens, UniProt P50750)
T14 construct: endogenous in cells; host or cells: PANC-1 cell lysate
Summary of the method: as §1

PCTAIRE1 = molecular target: T15, PCTAIRE1 (Homo sapiens, UniProt Q00536); conditions: Lys1
T15 construct: endogenous in cells; host or cells: PANC-1 cell lysate
Summary of the method: as §1

CLK2 = molecular target: T16, CLK2 (Homo sapiens, UniProt P49760); conditions: Lys2
T16 construct: endogenous in cells; host or cells: PANC-1 cell lysate
Summary of the method: as §1

PIP5K3 = molecular target: T17, PIP5K3 (Homo sapiens, UniProt Q9Y2I7); conditions: ATP
T17 construct: endogenous in cells; host or cells: PANC-1 cell lysate
Summary of the method: as §1

EphB3 = molecular target: T18, EphB3 (Homo sapiens, UniProt P54753); conditions: ATP Loop
T18 construct: endogenous in cells; host or cells: PANC-1 lysate
Summary of the method: as §1

MAP2K7 = molecular target: T19, MAP2K7 (Homo sapiens, UniProt O14733); conditions: Lys2
T19 construct: endogenous in cells; host or cells: PANC-1 cell lysate
Summary of the method: as §1

RAF1 = molecular target: T20, RAF1 (Homo sapiens, UniProt P04049); conditions: Lys2
T20 construct: endogenous in cells; host or cells: PANC-1 cell lysate
Summary of the method: as §1

ABL, ARG = conditions: 5 µM
Summary of the method: as §1

FRK = molecular target: T21, FRK (Homo sapiens, UniProt P42685); conditions: ATP Loop
T21 construct: endogenous in cells; host or cells: PANC-1 lysate
Summary of the method: as §1

DNAPK = molecular target: T22, DNAPK (Homo sapiens, UniProt P78527); conditions: ATP
T22 construct: endogenous in cells; host or cells: PANC-1 lysate
Summary of the method: as §1

Erk1 = molecular target: T23, Erk1 (Homo sapiens, UniProt P27361); conditions: Lys2
T23 construct: endogenous in cells; host or cells: PANC-1 lysate
Summary of the method: as §1

CHK1 = molecular target: T24, CHK1 (Homo sapiens, UniProt O14757); conditions: Lys2
T24 construct: endogenous in cells; host or cells: PANC-1 cell lysate
Summary of the method: as §1

T1 sequence (O95382 whole entry): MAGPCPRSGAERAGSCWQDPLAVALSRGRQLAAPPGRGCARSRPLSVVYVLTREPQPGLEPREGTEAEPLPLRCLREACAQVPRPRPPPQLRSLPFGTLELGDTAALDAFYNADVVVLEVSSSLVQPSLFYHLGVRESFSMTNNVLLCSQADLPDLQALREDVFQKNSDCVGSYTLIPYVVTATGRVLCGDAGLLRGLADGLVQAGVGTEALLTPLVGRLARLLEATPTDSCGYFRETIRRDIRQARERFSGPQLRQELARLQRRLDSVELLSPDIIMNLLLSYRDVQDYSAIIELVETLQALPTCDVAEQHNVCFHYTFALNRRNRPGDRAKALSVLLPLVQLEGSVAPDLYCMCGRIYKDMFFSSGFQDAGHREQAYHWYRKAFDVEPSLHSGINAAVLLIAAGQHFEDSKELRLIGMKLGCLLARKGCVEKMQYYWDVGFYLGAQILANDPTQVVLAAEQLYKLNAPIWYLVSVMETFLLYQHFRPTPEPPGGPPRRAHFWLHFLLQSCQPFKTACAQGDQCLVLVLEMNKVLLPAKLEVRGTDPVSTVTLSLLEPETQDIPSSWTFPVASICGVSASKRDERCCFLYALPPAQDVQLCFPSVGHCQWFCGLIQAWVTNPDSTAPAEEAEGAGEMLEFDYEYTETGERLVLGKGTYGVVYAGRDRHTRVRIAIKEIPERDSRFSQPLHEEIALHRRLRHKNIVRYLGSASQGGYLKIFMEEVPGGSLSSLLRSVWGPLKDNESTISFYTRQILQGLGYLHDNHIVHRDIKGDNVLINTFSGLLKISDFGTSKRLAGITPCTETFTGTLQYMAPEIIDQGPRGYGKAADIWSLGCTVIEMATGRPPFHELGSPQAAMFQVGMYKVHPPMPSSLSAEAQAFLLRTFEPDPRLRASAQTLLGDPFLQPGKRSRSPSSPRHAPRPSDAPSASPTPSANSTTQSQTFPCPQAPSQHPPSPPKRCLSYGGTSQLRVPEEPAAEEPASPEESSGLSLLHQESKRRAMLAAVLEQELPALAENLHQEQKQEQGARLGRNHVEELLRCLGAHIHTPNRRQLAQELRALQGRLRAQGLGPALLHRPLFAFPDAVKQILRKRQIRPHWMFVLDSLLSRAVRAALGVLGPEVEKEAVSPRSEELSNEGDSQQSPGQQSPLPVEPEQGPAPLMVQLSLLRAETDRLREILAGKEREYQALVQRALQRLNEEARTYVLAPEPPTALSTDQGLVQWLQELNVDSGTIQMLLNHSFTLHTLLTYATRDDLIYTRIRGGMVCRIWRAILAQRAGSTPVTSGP

## Cn1cc(-c2cnc3ccc(NC(=O)Nc4ccc(F)c(C(F)(F)F)c4)cc3n2)cn1 [51-106, 1-(4-Fluoro-3-(trifluoromethyl)phenyl)-3-(3-(1-methyl-1H-pyrazol-4-yl)quinoxalin-6-yl)urea]
MAP3K6; 5 µM, Lys2, […]
  inhibition at 5 µM: ≤ 0%
MAP3K6; 5 μM, PANC-1 lysate
  inhibition of MAP3K6 (in words): did not inhibit
BARK1
  inhibition at 5 µM: 2.2%
p70S6Kb
  inhibition at 5 µM: 22.5%
PLK2
  inhibition at 5 µM: 1.4%
LKB1
  inhibition at 5 µM: ≤ 0%
ZC2/TNIK
  inhibition at 5 µM: 11.2%
AKT1
  inhibition at 5 µM: ≤ 0%
SMG1; 5 µM, DTVTIHSVGGTITILPTKTKPK
  % Inhibition: NB (NB = No Binding (≤ 0))
SMG1; […]
  inhibition at 5 µM: ≤ 0%
MELK
  inhibition at 5 µM: ≤ 0%
RSK2 domain2
  inhibition at 5 µM: 5.7%
MAST4
  inhibition at 5 µM: ≤ 0%
GSK3B
  inhibition at 5 µM: ≤ 0%
PI4KA, PI4KAP2
  % Inhibition: 3.0%
DRAK1, DRAK2
  % Inhibition: 4.6%
AurA; 5 µM, Lys2, DIKPENLLLGSAGELK
  % Inhibition: NB (NB = No Binding (≤ 0))
AurA; Lys1, […]
  inhibition at 5 µM: ≤ 0%
CDK9; 5 µM, Lys2, DMKAANVLITR
  % Inhibition: NB (NB = No Binding (≤ 0))
CDK9; ATP Loop, […]
  inhibition at 5 µM: ≤ 0%
PCTAIRE1
  inhibition at 5 µM: ≤ 0%
CLK2
  inhibition at 5 µM: ≤ 0%
PIP5K3
  inhibition at 5 µM: ≤ 0%
EphB3
  inhibition at 5 µM: 1.6%
MAP2K7
  inhibition at 5 µM: ≤ 0%
RAF1
  inhibition at 5 µM: ≤ 0%
ABL, ARG; Activation Loop, LMTGDTYTAHAGAKFPIK
  % Inhibition: NB (NB = No Binding (≤ 0))
ABL, ARG; Lys1, YSLTVAVKTLK
  % Inhibition: 3.5%
ABL, ARG; Lys1, YSLTVAVKTLKEDTMEVEEFLK
  % Inhibition: NB (NB = No Binding (≤ 0))
FRK
  inhibition at 5 µM: ≤ 0%
DNAPK; 5 µM, EHPFLVKGGEDLR
  % Inhibition: NB (NB = No Binding (≤ 0))
DNAPK; […]
  inhibition at 5 µM: ≤ 0%
Erk1
  inhibition at 5 µM: ≤ 0%
CHK1
  inhibition at 5 µM: ≤ 0%
